{
  "source": "paper PMC11249239",
  "about": "(PLOS ONE, 2024)",
  "key": {"HDAC6": {"biological_target": "T1, HDAC6 (Homo sapiens, UniProt Q9UBN7)", "T1 construct": "purchased PBS Bioscience [sic] (San Diego, CA); host or cells: Sf9 insect cells / baculovirus", "T1 sequence (Q9UBN7 1-1215)": "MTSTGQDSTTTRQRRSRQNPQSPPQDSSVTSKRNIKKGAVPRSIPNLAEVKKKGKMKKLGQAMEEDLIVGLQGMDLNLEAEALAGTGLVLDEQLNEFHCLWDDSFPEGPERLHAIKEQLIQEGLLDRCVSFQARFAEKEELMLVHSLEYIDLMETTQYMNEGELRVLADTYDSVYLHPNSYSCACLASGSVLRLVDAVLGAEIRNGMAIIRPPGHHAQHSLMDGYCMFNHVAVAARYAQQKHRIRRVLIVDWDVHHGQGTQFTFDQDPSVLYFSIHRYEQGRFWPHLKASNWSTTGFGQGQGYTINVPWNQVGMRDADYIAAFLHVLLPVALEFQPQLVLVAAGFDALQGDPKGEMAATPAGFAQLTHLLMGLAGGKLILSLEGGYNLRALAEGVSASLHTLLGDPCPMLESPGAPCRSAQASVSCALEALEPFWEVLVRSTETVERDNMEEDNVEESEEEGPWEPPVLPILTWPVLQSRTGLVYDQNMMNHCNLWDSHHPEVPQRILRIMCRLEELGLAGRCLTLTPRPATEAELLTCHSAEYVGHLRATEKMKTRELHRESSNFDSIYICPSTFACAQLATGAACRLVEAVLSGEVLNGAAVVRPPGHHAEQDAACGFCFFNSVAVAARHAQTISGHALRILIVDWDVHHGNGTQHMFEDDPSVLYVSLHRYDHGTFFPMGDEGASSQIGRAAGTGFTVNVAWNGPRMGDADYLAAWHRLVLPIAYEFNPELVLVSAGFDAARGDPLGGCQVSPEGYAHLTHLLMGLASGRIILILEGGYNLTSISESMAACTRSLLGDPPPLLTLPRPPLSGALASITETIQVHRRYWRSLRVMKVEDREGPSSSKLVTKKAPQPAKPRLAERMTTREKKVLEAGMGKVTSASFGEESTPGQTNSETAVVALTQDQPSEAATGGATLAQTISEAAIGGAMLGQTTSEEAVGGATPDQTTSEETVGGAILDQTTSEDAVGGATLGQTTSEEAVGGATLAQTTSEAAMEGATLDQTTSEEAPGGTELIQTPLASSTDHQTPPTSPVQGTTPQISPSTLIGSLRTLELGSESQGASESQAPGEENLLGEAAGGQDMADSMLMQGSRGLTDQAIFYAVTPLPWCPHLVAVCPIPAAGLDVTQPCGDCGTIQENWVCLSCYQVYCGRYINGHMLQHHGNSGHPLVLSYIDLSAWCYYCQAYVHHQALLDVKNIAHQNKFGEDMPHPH", "assay": "In vitro HDAC isoform inhibition, purified recombinant HDAC6", "assay_type": "biochemical", "source_text": "In vitro HDAC enzyme inhibition assays utilized HeLa cell extract for pan-HDACs with the substrate Fluor-Lys following the manufacturer’s protocol (BIOMOL/ENZO, Plymouth Meeting, PA). For isoform assays, purified HDAC1, HDAC3, and HDAC6 recombinant proteins produced by expressing epitope-tagged full-length proteins in the sf9 baculovirus expression vector system were purchased from PBS Bioscience (San Diego, CA). […] The reaction commenced with the addition of HDAC substrate at room temperature and proceeded for 30 minutes. Termination of the reaction was achieved by adding 50 μL of Fluor de Lys (TM) Assay Developer. The fluorophore was excited at 360 nm and emitted light at 460 nm. Relative fluorescence was measured using a FlexStation II plate reader (Molecular Devices, Sunnyvale, CA)."}, "MCF7 cells": {"test_system": "MCF7 cells", "assay": "Cell cycle analysis by flow cytometry (FACS)", "assay_type": "cell-based", "description": "Cells were treated with SP-1-303 for 24, 48, and 72 hours. DMSO and ionizing radiation (IR) were used on controls. The cell cycle distributions were analyzed by flow cytometry. The cells were harvested at the indicated times, washed twice with cold phosphate-buffered saline (PBS), and fixed with citrate/DMSO buffer for overnight. The cells were resuspended in PBS containing 40 μg/ml of DNase-free RNase A and 50 μg/ml of propidium iodide, and the cell cycle distributions were measured in a fluorescence-activated cell sorter (FACSort) from Becton Dickinson. DNA content was quantified using ModFit LT 3.0 software (Verity Software House, Inc)."}},
  "note": "Where “and” joins values, the source holds several entries; their conditions need not be identical. Identical values can stand only once.",
  "data": [
    {"molecule": "Cc1[nH]c2ccccc2c1C1=C(c2c(C)[nH]c3ccccc23)C(=O)N(CCCCCCC(=O)NO)C1=O", "note": "[SP-1-303]", "values": [
      {"measurement": "ratio of inhibitory concentrations for HDAC6 to HDAC1", "setting": "HDAC6", "result": 36, "unit": "fold"},
      {"measurement": "IC50", "setting": "HDAC6; purified recombinant protein, ± margin of error of 95% confidence interval, read-out: IC50 HDAC inhibition activity in vitro, HDAC 6", "result": "435 ± 35", "unit": "nM"},
      {"measurement": "Ratio (HDAC6:HDAC1)", "setting": "HDAC6; ratio of IC50 values", "result": 36},
      {"measurement": "% Cells in G1", "setting": "MCF7 cells; 24 HR", "result": 89.44, "unit": "%"},
      {"measurement": "% Cells in G2/M", "setting": "MCF7 cells; 24 HR", "result": 6.19, "unit": "%"},
      {"measurement": "% Cells in S", "setting": "MCF7 cells; 24 HR", "result": 4.37, "unit": "%"},
      {"measurement": "% Cells in G2/M", "setting": "MCF7 cells; 24 HR + IR", "result": 5.12, "unit": "%"},
      {"measurement": "% Cells in S", "setting": "MCF7 cells; 24 HR + IR", "result": 3.91, "unit": "%"},
      {"measurement": "% Cells in G1", "setting": "MCF7 cells; 24 HR + IR (combination with radiation)", "result": "91% and 90.97%"},
      {"measurement": "% Cells in G1", "setting": "MCF7 cells; 48 HR", "result": 71.02, "unit": "%"},
      {"measurement": "% Cells in G2/M", "setting": "MCF7 cells; 48 HR", "result": 6.75, "unit": "%"},
      {"measurement": "% Cells in S", "setting": "MCF7 cells; 48 HR", "result": 22.24, "unit": "%"},
      {"measurement": "% Cells in G1", "setting": "MCF7 cells; 72 HR", "result": 81.35, "unit": "%"},
      {"measurement": "% Cells in G2/M", "setting": "MCF7 cells; 72 HR", "result": 6.21, "unit": "%"},
      {"measurement": "% Cells in S", "setting": "MCF7 cells; 72 HR", "result": 12.45, "unit": "%"}
    ]}
  ]
}
